pIC50: −log10 of the molar value.
Columns and labels:
Heat shock protein HSP90 = Heat shock protein HSP90 (Homo sapiens, UniProt P07900+P08238); assay: Inhibition of geldanamycin-based probe binding to HSP90 (unknown origin) by fluorescence polarization assay; type: protein assay
[1] = target: Heat shock protein HSP 90-alpha (Homo sapiens, UniProt P07900); assay: Inhibition of HSP90alpha (unknown origin)
[2] = target: T1, Protein deacetylase HDAC6 (Homo sapiens, UniProt Q9UBN7); assay: Inhibition of HDAC6 (unknown origin) using Arg-His-Lys-Lys(Ac) as substrate after 2 hrs by fluorescence analysis
T1 sequence (Q9UBN7 whole entry): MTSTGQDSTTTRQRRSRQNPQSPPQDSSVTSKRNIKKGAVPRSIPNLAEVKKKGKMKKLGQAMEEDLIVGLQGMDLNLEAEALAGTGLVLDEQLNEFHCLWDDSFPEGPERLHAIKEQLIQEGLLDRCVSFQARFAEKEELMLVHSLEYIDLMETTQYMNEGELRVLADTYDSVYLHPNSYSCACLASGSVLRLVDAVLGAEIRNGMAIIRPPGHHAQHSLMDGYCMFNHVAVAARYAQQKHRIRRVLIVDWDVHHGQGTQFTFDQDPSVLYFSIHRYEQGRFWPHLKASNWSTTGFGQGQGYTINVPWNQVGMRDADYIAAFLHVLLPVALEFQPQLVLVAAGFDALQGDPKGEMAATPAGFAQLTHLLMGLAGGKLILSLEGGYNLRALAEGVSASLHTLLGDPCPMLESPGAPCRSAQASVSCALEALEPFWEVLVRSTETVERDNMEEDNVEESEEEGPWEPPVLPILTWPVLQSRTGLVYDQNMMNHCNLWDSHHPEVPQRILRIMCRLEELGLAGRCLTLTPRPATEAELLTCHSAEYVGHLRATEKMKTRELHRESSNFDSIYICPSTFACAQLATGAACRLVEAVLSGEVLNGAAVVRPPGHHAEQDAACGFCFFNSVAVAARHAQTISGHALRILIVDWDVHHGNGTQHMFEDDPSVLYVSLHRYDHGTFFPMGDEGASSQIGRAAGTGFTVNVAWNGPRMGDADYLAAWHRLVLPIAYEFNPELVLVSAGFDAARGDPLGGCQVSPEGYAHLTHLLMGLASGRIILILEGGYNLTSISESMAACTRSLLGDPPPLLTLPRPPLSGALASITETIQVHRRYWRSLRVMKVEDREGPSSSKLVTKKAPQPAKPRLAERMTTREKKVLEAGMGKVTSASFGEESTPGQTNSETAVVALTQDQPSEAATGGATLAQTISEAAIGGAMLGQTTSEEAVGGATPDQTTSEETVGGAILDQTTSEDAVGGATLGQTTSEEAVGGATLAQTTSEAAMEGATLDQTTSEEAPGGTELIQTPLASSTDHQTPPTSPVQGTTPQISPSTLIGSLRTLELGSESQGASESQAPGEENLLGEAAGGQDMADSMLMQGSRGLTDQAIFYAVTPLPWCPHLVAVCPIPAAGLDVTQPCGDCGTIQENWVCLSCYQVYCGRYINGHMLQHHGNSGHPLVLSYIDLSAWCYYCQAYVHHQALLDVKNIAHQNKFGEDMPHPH

Histone deacetylase 1 = Histone deacetylase 1 (Homo sapiens, UniProt Q13547); assay: Inhibition of HDAC1 (unknown origin) using Arg-His-Lys-Lys(Ac) as substrate after 2 hrs by fluorescence analysis
[3] = target: Tyrosine-protein kinase JAK2 (Homo sapiens, UniProt O60674); assay: Inhibition of human JAK2 using poly[Glu:Tyr] (4:1) as substrate in presence of [gamma33P]-ATP
Sequence of Tyrosine-protein kinase JAK2 (O60674 whole entry): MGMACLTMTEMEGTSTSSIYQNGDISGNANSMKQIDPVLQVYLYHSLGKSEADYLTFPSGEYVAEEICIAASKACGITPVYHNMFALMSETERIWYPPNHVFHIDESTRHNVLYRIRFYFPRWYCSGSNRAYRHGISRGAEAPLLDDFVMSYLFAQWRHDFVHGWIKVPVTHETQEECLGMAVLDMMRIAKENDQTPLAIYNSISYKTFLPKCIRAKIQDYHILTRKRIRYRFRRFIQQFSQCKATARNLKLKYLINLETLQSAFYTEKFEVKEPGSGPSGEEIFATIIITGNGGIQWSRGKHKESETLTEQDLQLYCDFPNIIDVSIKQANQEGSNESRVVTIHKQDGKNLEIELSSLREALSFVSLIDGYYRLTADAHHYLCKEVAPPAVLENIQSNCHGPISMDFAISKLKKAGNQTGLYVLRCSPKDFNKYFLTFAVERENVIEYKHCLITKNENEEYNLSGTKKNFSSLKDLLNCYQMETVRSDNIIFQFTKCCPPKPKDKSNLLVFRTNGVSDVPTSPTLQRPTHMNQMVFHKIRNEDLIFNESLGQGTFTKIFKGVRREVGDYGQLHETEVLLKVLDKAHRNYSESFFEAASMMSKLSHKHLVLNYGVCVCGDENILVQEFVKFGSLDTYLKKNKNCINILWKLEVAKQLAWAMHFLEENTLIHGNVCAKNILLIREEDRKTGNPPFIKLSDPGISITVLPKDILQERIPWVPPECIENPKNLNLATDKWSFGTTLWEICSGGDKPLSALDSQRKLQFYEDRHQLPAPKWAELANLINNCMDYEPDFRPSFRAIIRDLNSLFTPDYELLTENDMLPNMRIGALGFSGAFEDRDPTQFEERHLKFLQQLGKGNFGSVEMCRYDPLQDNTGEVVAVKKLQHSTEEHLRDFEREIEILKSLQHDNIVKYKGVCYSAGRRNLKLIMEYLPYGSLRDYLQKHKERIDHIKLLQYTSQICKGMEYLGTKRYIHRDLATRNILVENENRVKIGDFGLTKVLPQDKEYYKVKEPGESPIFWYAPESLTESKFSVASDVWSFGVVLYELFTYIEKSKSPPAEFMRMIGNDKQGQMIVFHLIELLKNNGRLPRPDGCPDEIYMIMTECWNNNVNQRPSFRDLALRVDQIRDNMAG

Sequence of Histone deacetylase 1 (Q13547 whole entry): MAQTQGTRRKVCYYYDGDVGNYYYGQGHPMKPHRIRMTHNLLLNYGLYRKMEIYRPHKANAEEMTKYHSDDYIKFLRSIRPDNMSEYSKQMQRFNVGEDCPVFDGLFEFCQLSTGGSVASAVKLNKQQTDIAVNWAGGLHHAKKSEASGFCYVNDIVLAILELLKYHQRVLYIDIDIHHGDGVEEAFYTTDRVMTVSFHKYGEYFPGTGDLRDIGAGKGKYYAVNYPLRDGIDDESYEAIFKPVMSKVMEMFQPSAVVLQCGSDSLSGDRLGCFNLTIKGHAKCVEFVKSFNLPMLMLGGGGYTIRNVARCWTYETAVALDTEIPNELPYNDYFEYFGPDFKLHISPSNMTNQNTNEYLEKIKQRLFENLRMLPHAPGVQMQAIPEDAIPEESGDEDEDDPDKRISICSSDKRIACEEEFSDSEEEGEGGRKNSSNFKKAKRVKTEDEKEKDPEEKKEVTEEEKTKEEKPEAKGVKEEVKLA

IC50 (Heat shock protein HSP90) [µM]	pIC50 [1]	pIC50 [2]	pIC50 (Histone deacetylase 1)	pIC50 [3]	SMILES
> 10					CCNC(=O)c1cc2c(-c3cccc(OCCCCCn4cc(-c5ncnc6[nH]ccc56)cn4)c3)nc(N)nc2s1
	4.69	5.20	< 4.00		CCNC(=O)c1cc2c(-c3cc(OCCCCCCn4cc(-c5nc(Nc6ccc(NC(=O)CCCCCCC(=O)O)cc6)nc6[nH]ccc56)cn4)c(Cl)cc3Cl)nc(N)nc2s1
0.11				5.77	CCNC(=O)c1cc2c(-c3cc(OCCCCCCn4cc(-c5ncnc6[nH]ccc56)cn4)c(Cl)cc3Cl)nc(N)nc2s1
	< 4.00	5.55	< 4.00	4.85	CCNC(=O)c1cc2c(-c3cc(OCCCCCCn4cc(-c5nc(Nc6ccc(NC(=O)CCCCCCC(=O)NO)cc6)nc6[nH]ccc56)cn4)c(Cl)cc3Cl)nc(N)nc2s1
> 10				< 5.00	CCNC(=O)c1cc2c(-c3cccc(OCCCCn4cc(-c5ncnc6[nH]ccc56)cn4)c3)nc(N)nc2s1
0.4				5.46	CCNC(=O)c1cc2c(-c3cc(OCCCCCn4cc(-c5ncnc6[nH]ccc56)cn4)c(Cl)cc3Cl)nc(N)nc2s1
> 10					CCNC(=O)c1cc2c(-c3cccc(OCCCCCCn4cc(-c5ncnc6[nH]ccc56)cn4)c3)nc(N)nc2s1
	< 4.00	8.10	5.61	< 4.00	CCNC(=O)c1cc2c(-c3cccc(OCCCCCCOc4ccc(Nc5nc(-c6cnn(CCCCCCC(=O)NO)c6)c6cc[nH]c6n5)cc4)c3)nc(N)nc2s1
